# Reference: patent publication US20140329863A1 (priority 2011, published 2014)
# How the values were obtained:
# [1] = system: MDCK-MDR^1 cells (P-glycoprotein); experiment: Bidirectional MDCK-MDR1 cell permeability; type: in vitro ADME, canine
# Procedure: MDCK-MDR^1 cells were grown to confluence for 5-10 days on 1-μm filters in 24-well plates {Hilgers, 1990}. Aliquots of DMSO stocks were diluted into Hank's balanced salt solution (HBSS), pH 7.4, containing […] to give 10-μM solute concentration. The solute containing donor solutions were transferred to either the apical or basolateral chamber of the permeability diffusion apparatus. Receiver solutions consisted of HBSS (pH 7.4) containing 25 mM HEPES+0.05% PS80. Sequential samples of transported solute were taken at 20-min intervals using an automated liquid handling platform. The concentration of transported solute during each sampling interval was determined by HPLC/UV/MS. Permeability coefficients were calculated for each sampling interval. The average and standard deviation from the intervals are reported. Mass balance in the system was ascertained by comparing the sum of total transported solute and remaining donor solute with the starting mass of solute and is expressed as a percentage of donor solute at time zero. […] In the event of mass balance less than 70%, the cell monolayers were extracted with ACN and analyzed for the solute of interest. Determinations were conducted in duplicate.
# [2] = Fraction unbound in cell-culture media; type: in vitro ADME; details: 1 μM; mean ± SD, n = 3
# CYP2C9 [3] = target: T1, CYP2C9 (Homo sapiens, UniProt P11712); experiment: CYP phenotyping in human liver microsomes, sulphaphenazol; type: in vitro ADME; details: for CYP Involvement: CYP2C9, NADPH + Sulphaphenazol; for % Disappearance / Measured Conc. / Δ % Disappearance: reversible incubation condition, NADPH + Sulphaphenazol
# T1 construct: tissue BD Biosciences; host or cells: pooled human liver microsomes
# CYP2D6 [4] = target: T2, CYP2D6 (Homo sapiens, UniProt P10635); experiment: CYP phenotyping in human liver microsomes, quinidine; type: in vitro ADME; details: for CYP Involvement: CYP2D6, NADPH + Quinidine; for % Disappearance / Measured Conc. / Δ % Disappearance: reversible incubation condition, NADPH + Quinidine
# T2 construct: tissue BD Biosciences; host or cells: pooled human liver microsomes
# CYP3A4 [5] = target: T3, CYP3A4 (Homo sapiens, UniProt P08684); experiment: CYP phenotyping in human liver microsomes, ketoconazole; type: in vitro ADME; details: for CYP Involvement: CYP3A4, NADPH + Ketoconazole; for % Disappearance / Measured Conc. / Δ % Disappearance: reversible incubation condition, NADPH + Ketoconazole
# T3 construct: tissue BD Biosciences; host or cells: pooled human liver microsomes
# [6] = 1 and 10 μM
# in vitro [7] = details: rat, microsomes, pH 7.4
# [8] = Toleration studies in mice; details: 210 mg/kg/day for 14 days, mice
# CYP1A2 = target: T4, CYP1A2 (Homo sapiens, UniProt P05177); experiment: Cytochrome P450 phenotyping in human liver microsomes, CYP1A2 (furafylline); type: in vitro ADME; details: HLM, 10 μM furafylline
# T4 construct: tissue BD Biosciences; host or cells: pooled human liver microsomes
# T4 sequence (P05177 1-516): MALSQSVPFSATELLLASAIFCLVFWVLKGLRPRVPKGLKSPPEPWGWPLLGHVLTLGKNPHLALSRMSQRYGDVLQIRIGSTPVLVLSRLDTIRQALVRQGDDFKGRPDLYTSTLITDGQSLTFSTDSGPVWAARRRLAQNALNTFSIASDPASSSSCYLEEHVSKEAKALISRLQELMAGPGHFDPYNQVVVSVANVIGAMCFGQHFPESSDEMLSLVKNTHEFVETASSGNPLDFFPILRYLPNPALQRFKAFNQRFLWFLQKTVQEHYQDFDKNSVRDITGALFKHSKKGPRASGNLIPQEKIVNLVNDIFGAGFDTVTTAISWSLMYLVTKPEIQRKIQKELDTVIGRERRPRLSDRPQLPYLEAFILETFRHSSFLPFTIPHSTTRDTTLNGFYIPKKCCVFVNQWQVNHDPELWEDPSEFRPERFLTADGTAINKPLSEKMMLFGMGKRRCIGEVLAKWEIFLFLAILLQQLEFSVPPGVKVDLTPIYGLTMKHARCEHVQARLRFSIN
# Source text: (§1) % Disappearance=[(TC-NADPH TC+NADPH)/TC-NADPH]×100
# (§2) for which TC is the test compound.
# CYP2C9 [9] = target: T1, CYP2C9; experiment: Cytochrome P450 phenotyping in human liver microsomes, CYP2C9 (sulfaphenazole); type: in vitro ADME; details: HLM, 5 μM sulfaphenazole
# Source text: as §1, §2
# CYP2D6 [10] = target: T2, CYP2D6; experiment: Cytochrome P450 phenotyping in human liver microsomes, CYP2D6 (quinidine); type: in vitro ADME; details: HLM, 1 μM quinidine
# Source text: as §1, §2
# CYP3A4 [11] = target: T3, CYP3A4; experiment: Cytochrome P450 phenotyping in human liver microsomes, CYP3A4 (ketoconazole); type: in vitro ADME; details: HLM, 1 μM ketoconazole
# Source text: as §1, §2
# CYP2C19 = CYP2C19 (Homo sapiens, UniProt P33261); details: HLM, 5 μM (+)-N-3-benzylnirvanol
# in vitro [12] = details: plasma
# in vitro [13] = details: rat, plasma, pH 7.4
# in vitro [14] = details: dog, plasma, pH 7.4
# in vitro [15] = details: human, plasma
# in vitro [16] = details: Sprague-Dawley (rat), beagle (dog), CD-1 (mouse), human, plasma
# T3 sequence (P08684 whole entry): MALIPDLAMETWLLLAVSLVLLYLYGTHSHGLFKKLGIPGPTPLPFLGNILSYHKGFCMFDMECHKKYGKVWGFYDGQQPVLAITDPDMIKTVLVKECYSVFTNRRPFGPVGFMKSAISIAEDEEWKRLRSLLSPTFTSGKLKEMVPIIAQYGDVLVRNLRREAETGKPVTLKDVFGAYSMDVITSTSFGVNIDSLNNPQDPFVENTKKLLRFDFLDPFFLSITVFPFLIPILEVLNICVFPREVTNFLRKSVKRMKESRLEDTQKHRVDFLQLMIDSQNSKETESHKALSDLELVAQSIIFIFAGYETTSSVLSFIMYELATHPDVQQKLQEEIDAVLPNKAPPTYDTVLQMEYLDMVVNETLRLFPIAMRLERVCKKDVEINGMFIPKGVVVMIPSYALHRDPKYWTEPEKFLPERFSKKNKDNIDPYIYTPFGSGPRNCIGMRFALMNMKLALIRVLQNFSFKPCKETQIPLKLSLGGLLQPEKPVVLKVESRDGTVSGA
# T1 sequence (P11712 whole entry): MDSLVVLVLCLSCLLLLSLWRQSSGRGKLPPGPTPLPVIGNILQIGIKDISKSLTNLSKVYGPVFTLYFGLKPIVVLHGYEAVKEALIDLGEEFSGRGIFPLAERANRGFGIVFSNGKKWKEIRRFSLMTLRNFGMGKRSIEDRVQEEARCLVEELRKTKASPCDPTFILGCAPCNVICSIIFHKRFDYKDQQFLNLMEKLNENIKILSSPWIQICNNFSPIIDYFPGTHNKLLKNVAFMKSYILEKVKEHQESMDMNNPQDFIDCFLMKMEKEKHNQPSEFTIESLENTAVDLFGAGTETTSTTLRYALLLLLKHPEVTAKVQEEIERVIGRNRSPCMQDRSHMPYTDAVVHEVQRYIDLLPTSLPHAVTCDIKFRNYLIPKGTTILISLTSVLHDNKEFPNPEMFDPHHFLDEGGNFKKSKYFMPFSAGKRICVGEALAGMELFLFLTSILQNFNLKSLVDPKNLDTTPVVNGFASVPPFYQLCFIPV
# T2 sequence (P10635 whole entry): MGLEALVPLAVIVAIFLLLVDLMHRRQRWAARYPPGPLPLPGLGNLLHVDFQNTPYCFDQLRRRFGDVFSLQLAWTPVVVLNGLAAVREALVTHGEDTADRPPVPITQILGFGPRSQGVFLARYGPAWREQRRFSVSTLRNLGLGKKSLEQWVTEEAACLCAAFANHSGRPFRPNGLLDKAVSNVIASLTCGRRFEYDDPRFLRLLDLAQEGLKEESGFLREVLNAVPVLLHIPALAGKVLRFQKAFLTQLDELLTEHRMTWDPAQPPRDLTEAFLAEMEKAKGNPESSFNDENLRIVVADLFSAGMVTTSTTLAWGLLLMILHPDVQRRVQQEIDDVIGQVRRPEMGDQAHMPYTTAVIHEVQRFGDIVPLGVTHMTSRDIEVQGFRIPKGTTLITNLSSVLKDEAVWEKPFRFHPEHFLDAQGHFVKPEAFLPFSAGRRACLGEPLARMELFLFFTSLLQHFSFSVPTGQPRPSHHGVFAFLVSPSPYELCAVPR
# Chain of CYP2C19 (P33261 whole entry): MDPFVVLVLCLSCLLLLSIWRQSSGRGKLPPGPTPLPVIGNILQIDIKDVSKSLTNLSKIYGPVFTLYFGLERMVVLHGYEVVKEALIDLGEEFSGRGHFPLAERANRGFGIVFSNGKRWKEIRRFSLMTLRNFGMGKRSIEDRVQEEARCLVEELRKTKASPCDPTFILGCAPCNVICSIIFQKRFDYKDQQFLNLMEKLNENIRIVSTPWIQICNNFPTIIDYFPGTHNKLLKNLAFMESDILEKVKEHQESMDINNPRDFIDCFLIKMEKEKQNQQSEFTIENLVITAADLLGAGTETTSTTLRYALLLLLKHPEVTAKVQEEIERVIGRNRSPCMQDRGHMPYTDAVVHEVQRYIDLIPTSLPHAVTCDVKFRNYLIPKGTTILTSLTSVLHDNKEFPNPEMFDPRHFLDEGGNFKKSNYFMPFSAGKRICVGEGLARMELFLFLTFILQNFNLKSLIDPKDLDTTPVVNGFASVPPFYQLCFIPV
SMILES,"P-gp substrate status, absorptive vs secretory permeability [1]","Unbound (%), Cell-culture Media [2]",CYP Involvement (CYP2C9 [3]),% Disappearance (CYP2C9 [3]),Measured Conc. (CYP2C9 [3]),Δ % Disappearance (CYP2C9 [3]),CYP Involvement (CYP2D6 [4]),% Disappearance (CYP2D6 [4]),Measured Conc. (CYP2D6 [4]),Δ % Disappearance (CYP2D6 [4]),CYP Involvement (CYP3A4 [5]),% Disappearance (CYP3A4 [5]),Measured Conc. (CYP3A4 [5]),Δ % Disappearance (CYP3A4 [5]),brain tissue binding [6],other results
"Cc1cccc(Nc2nc(-c3ccc(-c4ccccc4)cc3)cs2)n1 [IND24, (4-Biphenyl-4-yl-thiazol-2-yl)-(6-methyl-pyridin-2-yl)-amine]",not substrates,25.7 ± 4.93%,Unlikely (unlikely for values <5),14%,0.566 µM,0 (−14) %,Unlikely (unlikely for values <5),15%,0.555 µM,0 (−15) %,Unlikely (unlikely for values <5),15%,0.557 µM,0 (−15) %,92-93%,half-life at 1 μM (in vitro [7]): > 1 h; Toleration [8]: well tolerated
"Cc1ccnc(Nc2nc(-c3ccc(-c4ccccn4)s3)cs2)c1 [IND81, (4-Methyl-pyridin-2-yl)-[4-(5-pyridin-2-yl-thiophen-2-yl)-thiazol-2-yl]-amine]",not substrates,23.2 ± 2.68%,Unlikely (unlikely for values <5),64%,0.238 µM,1.8%,Likely (likely for values >10),55%,0.300 µM,11%,Likely (likely for values >10),51%,0.324 µM,15%,~90%,"involvement of CYP1A2 in metabolism (CYP1A2): most likely to be involved; involvement of CYP2C9 in metabolism (CYP2C9 [9]): unlikely to be involved; involvement of CYP2D6 in metabolism (CYP2D6 [10]): most likely to be involved; involvement of CYP3A4 in metabolism (CYP3A4 [11]): most likely to be involved; involvement of CYP2C19 in metabolism (CYP2C19): might be involved to a smaller extent; fraction unbound at 4 h (in vitro [12]; CD-1, mouse, pH 7.4, free fraction in plasma): ~0.57; fraction unbound at 4 h (in vitro [12]; mouse, pH 7.4, free fraction in plasma): 0.06 to 0.09; fraction unbound at 4 h (in vitro [12]; mouse, pH 7.4, plasma protein binding, 1 and 10 μM): 0.04 to 0.07; fraction unbound at 4 h (in vitro [13]; Sprague-Dawley): ~0.57; fraction unbound at 4 h (in vitro [13]): 0.04 to 0.07; fraction unbound at 4 h (in vitro [14]; beagle): ~0.57; fraction unbound at 4 h (in vitro [14]): 0.04 to 0.07; fraction unbound at 4 h (in vitro [15]; pH 7.4, free fraction in plasma): ~0.57; fraction unbound at 4 h (in vitro [15]; pH 7.4, plasma protein binding, 1 and 10 μM): 0.04 to 0.07; fraction unbound (in vitro [16]): 0.57"
